Results: article PMC12303080, “Diverse actions of 15 structurally unrelated mitochondrial uncouplers in cells and mice” (Molecular Metabolism, 2025)
Where two headings read alike, the source gives them in different places. Values belong to the molecule of their own block, whether it stands above or below them.

What was measured:
[1] = tested on: Arabidopsis thaliana cells; set-up: method as in PMID 22006339; conditions: cited from earlier work
[2] = Drug exposure / pharmacokinetics after oral gavage; conditions: male, C57BL/6J, mouse, plasma, 10 mg/kg
CHO–K1 cells [3] = assay: OCR in the absence or presence of oligomycin (Supplementary Fig. 6); assay type: cell-based, Cricetulus griseus; conditions: 1 μM oligomycin, uncoupler at lowest concentration yielding MaxOCR
Description: ATP synthase is the major conduit through which protons re-enter the mitochondrial matrix. Thus, we sought to investigate whether the selected uncouplers could stimulate oxygen consumption in the presence of the ATP synthase inhibitor oligomycin.
Supplementary Figure 6. […] At ~24 minutes, 1 μM of oligomycin or vehicle was injected, followed by the injection of the indicated uncoupler or vehicle at ~44 minutes, and 0.5 μM Rotenone / Antimycin A at ~88 minutes.

db/db mice = assay: Four-week treatment by admixture in chow, metabolic phenotyping; conditions: 4 weeks
Description: Body weight and glucose tolerance of male db/+ and db/db mice was assessed at 8–9 weeks of age to obtain baseline measurements. Db/+ were used as lean metabolically healthy controls and given ad libitum access to chow diet. Db/db mice were stratified into 12 groups using R (V4.4.0).
Mice were on treatment for a period of four weeks, during which body weight and food intake were measured daily. […] To counter this, food traps were placed beneath hoppers and leftover food in both the traps and hoppers was weighed daily. HbA1c was measured weekly. At the end of the treatment period, a glucose tolerance test was conducted, with fed and fasted bloods collected. At termination, blood was collected via cardiac puncture under isoflurane anaesthesia. Mice were euthanised by cervical dislocation and harvested tissues were flash-frozen in liquid nitrogen and stored at −80 °C.
Mice were fasted for 6 h and then received intraperitoneal injections of 20% (w/v) dextrose at a dose of 1 g/kg lean body mass. Blood glucose (BG) was measured at the time of fasting (random-fed BG) and then again prior to the commencement of the GTT following the 6-hour daytime fast (fasted BG). […] The rate of glucose clearance was measured using the trapezoidal method for calculation of area under the curve.
HbA1c was measured once weekly using an A1cNow + Portable HbA1c Test Kit. […] HbA1c was measured in the random-fed state.
A glucose tolerance test was conducted at the end of the treatment period, with random fed and 6-hour fasted bloods collected. Blood was collected in heparin tubes and kept on ice prior to centrifugation at 2000×g for 10 min at 4 °C to extract plasma. Plasma insulin concentration was determined using the Crystal Chem Ultra-Sensitive Mouse Insulin ELISA kit, according to manufacturers' instructions for the high range (1–64 ng/mL) assay.

CHO–K1 cells [4] = assay: Seahorse XF-96 OCR dose response of 15 uncouplers (Figure 2); assay type: cell-based, Cricetulus griseus; conditions: for EC50: mean OCR (% basal) over first 24 min post injection, ± standard error, four-parameter fit
Description: Stock solutions of the uncouplers and/or Rotenone/Antimycin A were diluted in Seahorse media to give the final concentration indicated in Figure 1, Figure 2, Figure 3 with 0.4% (v/v) DMSO in wells.

humans = conditions: cited from earlier work
Swiss mice = tested on: Swiss mice; set-up: method as in PMID 18505478; conditions: ∼30–105 μg/kg/day in drinking water; cited from earlier work

Cmax [2]: 72.3 µM
SMILES: O=[N+]([O-])c1ccc(NS(=O)(=O)c2ccc(Br)s2)cc1 [ES9, Endosidin 9]
Concentration increasing respiration (as low as) [1]: Endosidin 9 (ES9) • ES9 has not been tested in mouse models of metabolic disease. It was identified in a chemical library screen for inhibitors of endomembrane trafficking and increased respiration in Arabidopsis thaliana cells at concentrations as low as 1 μM [71]. | Effect of oligomycin on uncoupler-stimulated OCR (CHO–K1 cells [3]): largely unaffected by the presence of oligomycin | Gastrocnemius weight vs control (db/db mice; 0.015% in chow): significantly larger gastrocnemius | Gastrocnemius weight vs control (db/db mice; 0.03% in chow): significantly larger gastrocnemius | Increase of total liver cholesterol content vs db/db control (db/db mice; 0.03% in chow): ~1.7 fold | Post-treatment GTT AUC lower than control group (db/db mice; 0.03% in chow): ~35% | Body weight / weight gain vs db/db controls (db/db mice; 0.15% BAM15, 0.02% OPC-163493, 0.015% and 0.03% ES9, NTZ and NEN both doses): non-significant trend for increased weight gain | GTT ΔAUC (post minus pre-treatment) (db/db mice; 0.15% and 0.2% BAM15, printed 0.3% ES9): statistically significant protection from worsening glucose tolerance | Blood glucose, HbA1c, glucose tolerance vs control (db/db mice; NEN both doses, 0.01% OPC, 0.015% ES9, 0.2% NTZ): did not have significantly lower random-fed or 6-hour fasted blood glucose | HbA1c (db/db mice; both doses of BAM15, printed 0.3% ES9, 0.4% NTZ): lowered HbA1c levels | Fasting and random fed blood glucose (db/db mice; either dose of BAM15, high dose ES9, high dose NTZ): partial efficacy | Increase of liver triglyceride concentration vs db/db controls (db/db mice; high dose ES9 (0.03%)): ~2.7 fold | Increase of total liver triglyceride content vs db/db controls (db/db mice; high dose ES9 (0.03%)): ~3.4 fold | Liver triglyceride concentration vs db/db controls (db/db mice; lower dose ES9 (0.015%)): significantly increased liver triglyceride concentration | Increase in liver wet weight vs db/db control (db/db mice; printed 0.3% ES9 in chow): ~25% | EC50 (CHO–K1 cells [4]; CHO–K1, read-out: EC50 (increase of OCR)): 1.6 µM | Concentration range with sustained enhanced OCR (OCR ≥ 150% basal) (CHO–K1 cells [4]; CHO–K1, tested 0.32–200 μM): ≤ 100 µM | EC50 (CHO–K1 cells [4]; Cricetulus griseus, CHO-K1, 0.4 h, CHO–K1, read-out: EC50 (increase of OCR)): 1.61 ± 0.41 µM

SMILES: O=[N+]([O-])c1ccc(O)c([N+](=O)[O-])c1 [DNP, 2,4-Dinitrophenol]
Body weight lost per week (humans): 1.5 kg | Weight loss (humans): ≤ 1.5 kg/week | Increase in metabolic rate (humans; for every 100 mg ingested): 11% | Effect of oligomycin on uncoupler-stimulated OCR (CHO–K1 cells [3]): largely unaffected by the presence of oligomycin | MaxOCR lower than that seen with BAM15 (CHO–K1 cells [4]; CHO–K1, Figure 2): ~27% | EC50 (CHO–K1 cells [4]; Cricetulus griseus, CHO-K1, 0.4 h, read-out: EC50 (increase of OCR), CHO–K1): 17 ± 1.18 µM | EC50 (CHO–K1 cells [4]; read-out: EC50 (increase of OCR), CHO–K1): 17 µM | Lifespan extension (Swiss mice): 7%
